Each structure is given as a SMILES string.

The test system of the experiment is Mycobacterium tuberculosis H37Rv growth inhibition, no glycerol. Put plainly: Confirmatory growth inhibition assay, Mycobacterium tuberculosis H37Rv, absence of glycerol (AID 449764).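 For all read-outs here: growth read after 7 days of incubation.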 The note with it: for IC90: measured here: IC90 growth inhibition.

What is called IC50 is the concentration needed to halve the response being measured. By IC90 is commonly meant the concentration needed for an effect of 90%. A lower IC90 goes with an effect from little substance. On to `CCCCOC(=O)NS(=O)(=O)c1sc(CC(C)C)cc1-c1ccc(Cn2c(CC)nc3c(C)cc(C)nc32)cc1`, for which the IC50 is 30.7 µM and the IC90 amounted to 47.2 µM.

Turning to `Cc1cccc2c1-c1sc(C(=O)Nc3ccccc3N3CCN(C)CC3)cc1CO2`, the IC50 was 24.1 µM and the IC90 stood at 27.6 µM.

Turning to `CCCCCC(=O)NNC(=S)NC(=O)c1ccc([N+](=O)[O-])cc1`, the IC50 was 3.22 µM and the IC90 came out at 5.86 µM.

With `COc1ccccc1OC(=O)c1ccc(S(=O)(=O)N(C)C)cc1`, the IC50 is 16.4 µM and the IC90 worked out at 35.8 µM.

In the case of `CC[C@H](C)[C@@H]1O[C@@]2(C=CC1C)CC1C[C@@H](CC=C(C)C(O[C@H]3CC(OC)C(O[C@H]4CC(OC)C(O)C(C)O4)C(C)O3)C(C)C=CC=C3CO[C@@H]4C(O)C(C)=C[C@@H](C(=O)O1)[C@]34O)O2` (some centres undefined), the IC50 was 16.5 µM and the IC90 turned out to be 27.3 µM.

Regarding `CCCNC(=S)Nc1ccc(Nc2ccccc2)cc1`, the IC50 was 25 µM and the IC90 was 44.5 µM.

As for `COc1ccccc1C(=O)NC(=S)/C=C1/N(C)c2ccccc2C1(C)C`, the 50% inhibitory concentration (IC50) is 30.8 µM and the 90% effect concentration (IC90) stood at 46.8 µM.

As to `Cc1ccc(C(=O)N/N=C(/CC(=O)c2cccs2)C(F)(F)F)cc1`, the IC50 was 2.25 µM and the IC90 was found to be 3.18 µM.

As to `N[C@@H](CCl)C(=O)O`, the IC50 was 35.4 µM and the IC90 worked out at 55.2 µM.

Take `COc1cccc(/C=N/Nc2nc(Nc3ccccc3)nc(-n3nc(C)cc3C)n2)c1O`: the IC50 is under 0.2 µM and the IC90 came to 0.25 µM.

Regarding `O=C(Cn1ncc(Cl)c(Cl)c1=O)c1ccc2c(c1)OCCO2`, the IC50 was 10.4 µM and the IC90 is 15.7 µM.

As to `O=C(CCc1c[nH]c2ccccc12)N1CCN(S(=O)(=O)c2ccccc2)CC1`, the IC50 was 78.7 µM and the IC90 is over 100 µM.

Consider `CCc1ccc(C2=NN(c3ccc(S(N)(=O)=O)cc3)C(c3ccc(F)cc3)C2)cc1` (centres undefined), for which the IC50 is 40.5 µM and the IC90 was 53.3 µM.

In the case of `COc1ccc(Nc2nc(N3CCCCC3)nc3ccccc23)c(OC)c1`, the 50% inhibitory concentration (IC50) is 22.7 µM and the IC90 came out at 26 µM.

With `COc1cccc(-c2cc3nc4c(c(NCC(C)(C)CN(C)C)n3n2)CCCC4)c1`, the IC50 is 27.5 µM and the IC90 was determined as 36.3 µM.

On to `Cc1ccc2ccc3ccc(C)nc3c2n1`, for which the IC50 is 1.4 µM and the IC90 was determined as 2.11 µM.

Regarding `Cn1cc(/C=C2\C(=O)NC(=O)N(c3ccccc3)C2=O)c2ccccc21`, the IC50 was 42 µM and the IC90 was over 100 µM.

As to `Cc1c(CN2CCC(CO)(Cc3cccc(C(F)(F)F)c3)CC2)c2ccccc2n1C`, the IC50 was 31.2 µM and the IC90 came out at 39.6 µM.

As for `CCC(=O)c1ccc(OCC(O)CN2CCN(c3cccc(C(F)(F)F)c3)CC2)cc1` (centres undefined), the IC50 was 19.7 µM and the IC90 worked out at 26.7 µM.

On to `Cc1nc(NCCc2ccccc2)c2oc3ccccc3c2n1`, for which the IC50 was 7.3 µM and the IC90 is 13.3 µM.

In the case of `CCCC(=O)Nc1ccc(C(=O)/C=C/c2ccc(SC)cc2)cc1`, the IC50 is 64.3 µM and the IC90 came out at 85.4 µM.

Regarding `[O-][n+]1c2ccccc2c2n1CCN1CCOC21c1ccc(Cl)cc1` (centres undefined), the IC50 is 51 µM and the IC90 stood at 79.3 µM.

On to `CCOc1ccc(CN(C)CC(O)COC(c2ccc(OC)cc2)c2ccc(OC)cc2)cc1` (centres undefined), for which the IC50 was 16.1 µM and the IC90 worked out at 18.9 µM.

`CC1=NN(c2ccccc2)C(=O)/C1=C\c1c(C)[nH]n(-c2ccccc2)c1=O` displayed an IC90 of over 100 µM.

Regarding `C(=N\NC1=Nc2cccc3cccc1c23)/c1cccnc1`, the IC50 is 92.8 µM and the IC90 is over 100 µM.

With `Cc1ccc(Cn2c(C(CO)Nc3nc(-c4ccc(F)cc4)cs3)nc3ccccc32)cc1` (centres undefined), the IC50 is 66.4 µM and the IC90 is 91.8 µM.

Take `CC(/C=N/n1c(C2CCCCC2)n[nH]c1=S)=C\c1ccccc1`: the IC50 was 80.8 µM and the IC90 turned out to be 90.3 µM.

Regarding `Cc1ccc(S(=O)(=O)n2ccc3c(OCCOCCNCc4ccc(F)cc4)cccc32)cc1`, the IC50 was 23 µM and the IC90 came out at 26 µM.

Regarding `O=C(Nc1ccccc1)C1=C[C@@H](C2CCCCC2)C[C@@H](OCc2ccc(CO)cc2)O1`, the concentration for half-maximal inhibition (IC50) was 36 µM and the IC90 was found to be 47.6 µM.

Consider `Cc1nn(-c2nc3ccccc3[nH]2)c(N)c1-c1ccc(Cl)cc1`, for which the IC50 is 3.72 µM and the IC90 is over 100 µM.

Consider `c1ccc(-c2c3ccccc3nc3[nH]c4ccccc4c23)cc1`, for which the IC50 was 96.3 µM and the IC90 was over 100 µM.

As for `CN1C2CCC1/C(=C/c1ccccn1)C(=O)/C2=C\c1ccccn1`, the IC50 is 23.4 µM and the IC90 was 26.8 µM.

For `Nc1cc(Cl)c2nonc2c1[N+](=O)[O-]`, the IC50 is 9.11 µM and the IC90 worked out at 11.7 µM.

As to `CCOC1OC(=O)C(Cl)=C1Nc1ccccc1C` (centres undefined), the IC50 is 3.39 µM and the IC90 stood at 7.24 µM.

Turning to `CN1C(=O)/C(=C/c2ccccc2Cl)Sc2ccc(C(=O)NCc3cccnc3)cc21`, the IC50 is 50.6 µM and the IC90 amounted to 89.8 µM.

`CCOC(=O)c1cnc(Nc2nc3ccccc3o2)nc1CSC(=S)N(CC)CC`: the IC50 was 49.3 µM and the IC90 was 56.6 µM.

With `Cc1cccc(NC(=O)CCSc2nnc(Cc3ccccc3)o2)c1`, the IC50 was 38.1 µM and the IC90 is over 100 µM.

In the case of `COC(=O)c1cc(=O)n(-c2ccc(F)cc2)c(=Nc2ccc(F)cc2)s1`, the IC50 was 0.46 µM and the IC90 was 1.24 µM.

Consider `O=C(Oc1ccc2ccccc2c1)c1cncc(Br)c1`, for which the IC50 is 55.3 µM and the IC90 is over 100 µM.

Regarding `COC(=O)CSc1nnc(CNc2ccc(Cl)cc2)n1-c1ccccc1`, the IC50 is 22.4 µM and the IC90 came out at 25.3 µM.

As for `CCOc1cc(CNCCCN2CCOCC2)cc(Br)c1OCC(=O)Nc1cccc(C(F)(F)F)c1`, the IC50 is 23.3 µM and the IC90 was 32 µM.

On to `CCOc1ccc(NC(=O)c2sc3nc(C)nc(N4CCOCC4)c3c2C)cc1`, for which the IC50 is 30.3 µM and the IC90 was determined as 57 µM.

Regarding `Cc1cccc(NS(=O)(=O)c2ccc(C(=O)N3CCN(c4ccccc4O)CC3)cc2)c1C`, the IC50 was 85.5 µM and the IC90 was over 100 µM.

As to `Cc1cc2c(cc1C)/C(=N/NC(=O)c1ccccn1)CCC2`, the IC50 is 24.2 µM and the IC90 was 53.6 µM.

In the case of `CCOC(=O)c1ccc(N=C2C(=S)N(c3ccc(C(=O)OCC)cc3)C(=N)N2/N=C/c2ccccc2)cc1`, the IC50 is 99.7 µM and the IC90 was over 100 µM.

For `O=C(Nc1ccc(C2=NCCN2)cc1)c1ccc(Cl)c(C(=O)Nc2ccc(C3=NCCN3)cc2)c1`, the IC50 is 22.7 µM and the IC90 was determined as 25.4 µM.

Take `Cc1noc(C)c1COc1ccc(C(=O)OCC(=O)NC23CC4CC(CC(C4)C2)C3)cc1`: the IC50 was 23.9 µM and the IC90 amounted to 35.5 µM.

In the case of `O=C(NCCC1=CCCCC1)c1c(O)nc2sccn2c1=O`, the IC50 is 66 µM and the IC90 was over 100 µM.

As to `O=C1CC(=C(c2ccccc2)c2ccccc2)C(=O)N1CCCCN1CCN(c2ccccc2)CC1`, the IC50 was 25.3 µM and the IC90 is 28.8 µM.

For the compound `O=C(Nc1cc(C(F)(F)F)ccc1Cl)C(Sc1cccc[n+]1[O-])c1ccccc1` (centres undefined), the IC50 was 43.7 µM and the IC90 was determined as 48.2 µM.

These data come from PubChem BioAssay AID449764 (Southern Research Specialized Biocontainment Screening …, 2010).
